Legend:
Assay type in all cases: biochemical
FLT3-D835Y = molecular target: T1, FLT3-D835Y (Homo sapiens, UniProt P36888, D835Y); assay: FLT3-D835Y recombinant enzyme kinase assay (AlphaScreen); settings: 8 pt, GMean
T1 construct: purchased Invitrogen PV3967
T1 sequence (P36888 27-993 D835Y): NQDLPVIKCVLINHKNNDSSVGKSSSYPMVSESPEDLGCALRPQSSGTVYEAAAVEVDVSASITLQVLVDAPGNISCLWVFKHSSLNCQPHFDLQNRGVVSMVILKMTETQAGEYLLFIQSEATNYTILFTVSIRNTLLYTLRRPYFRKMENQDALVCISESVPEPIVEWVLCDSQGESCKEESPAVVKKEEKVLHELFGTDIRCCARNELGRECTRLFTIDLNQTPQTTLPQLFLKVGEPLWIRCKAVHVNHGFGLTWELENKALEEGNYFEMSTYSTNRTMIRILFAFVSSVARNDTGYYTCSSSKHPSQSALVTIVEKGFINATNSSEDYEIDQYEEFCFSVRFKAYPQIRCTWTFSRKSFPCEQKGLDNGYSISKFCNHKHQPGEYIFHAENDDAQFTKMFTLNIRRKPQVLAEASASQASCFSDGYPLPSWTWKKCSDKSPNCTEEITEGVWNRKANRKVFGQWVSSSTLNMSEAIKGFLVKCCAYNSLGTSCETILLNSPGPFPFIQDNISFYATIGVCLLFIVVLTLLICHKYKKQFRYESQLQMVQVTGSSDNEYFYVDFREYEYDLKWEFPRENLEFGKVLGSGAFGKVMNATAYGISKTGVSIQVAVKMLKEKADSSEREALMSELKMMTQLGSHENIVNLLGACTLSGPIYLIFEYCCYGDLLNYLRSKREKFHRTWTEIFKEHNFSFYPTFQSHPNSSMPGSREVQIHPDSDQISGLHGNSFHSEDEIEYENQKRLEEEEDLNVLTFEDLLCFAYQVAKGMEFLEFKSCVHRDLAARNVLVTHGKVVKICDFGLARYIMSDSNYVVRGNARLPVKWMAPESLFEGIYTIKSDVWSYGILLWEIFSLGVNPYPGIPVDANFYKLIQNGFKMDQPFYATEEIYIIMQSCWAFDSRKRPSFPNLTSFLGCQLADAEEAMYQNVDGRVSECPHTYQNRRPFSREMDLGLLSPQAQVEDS
Method in brief: (§1)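 Recombinant enzyme phosphorylated biotinylated poly(Glu4-Tyr) peptide (30 nM final) with ATP at 10 μM for FLT3-ITD and FLT3-D835Y or 100 μM for c-KIT. Phosphopeptide was detected by AlphaScreen with streptavidin donor and anti-phosphotyrosine (PY20) acceptor beads (10 μg/mL), read at 580 nm, for IC50 determination.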

FLT3-ITD = molecular target: T2, FLT3-ITD (Homo sapiens, UniProt P36888); assay: FLT3-ITD recombinant enzyme kinase assay (AlphaScreen); settings: 8 pt; read-out: FLT3_ITD 8 pt: IC50
T2 sequence (P36888 1-993): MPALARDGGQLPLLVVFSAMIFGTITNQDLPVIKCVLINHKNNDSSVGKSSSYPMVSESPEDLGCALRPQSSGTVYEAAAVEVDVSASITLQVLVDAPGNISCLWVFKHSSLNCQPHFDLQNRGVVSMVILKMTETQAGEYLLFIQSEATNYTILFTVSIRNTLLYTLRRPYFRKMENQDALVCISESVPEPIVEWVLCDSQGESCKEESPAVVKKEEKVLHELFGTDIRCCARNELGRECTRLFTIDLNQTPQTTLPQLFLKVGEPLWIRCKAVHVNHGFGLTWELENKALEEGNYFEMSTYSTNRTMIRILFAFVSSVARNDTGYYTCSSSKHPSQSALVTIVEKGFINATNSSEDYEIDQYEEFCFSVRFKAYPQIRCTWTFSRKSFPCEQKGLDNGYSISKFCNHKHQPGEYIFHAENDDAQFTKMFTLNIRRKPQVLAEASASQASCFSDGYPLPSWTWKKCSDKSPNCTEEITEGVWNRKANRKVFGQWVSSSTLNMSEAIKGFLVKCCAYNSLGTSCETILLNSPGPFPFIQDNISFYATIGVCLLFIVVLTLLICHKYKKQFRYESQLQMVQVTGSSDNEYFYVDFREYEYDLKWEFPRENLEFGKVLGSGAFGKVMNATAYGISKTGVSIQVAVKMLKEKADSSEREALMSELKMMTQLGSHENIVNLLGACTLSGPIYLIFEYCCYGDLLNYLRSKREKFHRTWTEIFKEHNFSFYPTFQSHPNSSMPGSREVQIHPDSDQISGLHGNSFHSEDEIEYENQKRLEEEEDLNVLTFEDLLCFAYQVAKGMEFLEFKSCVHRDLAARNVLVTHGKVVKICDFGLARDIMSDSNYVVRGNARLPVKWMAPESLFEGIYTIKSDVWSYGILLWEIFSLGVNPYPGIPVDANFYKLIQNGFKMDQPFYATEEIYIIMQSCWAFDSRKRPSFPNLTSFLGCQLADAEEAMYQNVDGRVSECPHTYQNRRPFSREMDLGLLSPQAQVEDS
Method in brief: as §1

c-KIT = molecular target: T3, c-KIT (Homo sapiens, UniProt P10721); assay: c-KIT recombinant enzyme kinase assay (AlphaScreen); settings: 100 ATP, 8 pt
T3 construct: purchased Millipore 14-559K
Method in brief: as §1

T3 sequence (P10721 26-976): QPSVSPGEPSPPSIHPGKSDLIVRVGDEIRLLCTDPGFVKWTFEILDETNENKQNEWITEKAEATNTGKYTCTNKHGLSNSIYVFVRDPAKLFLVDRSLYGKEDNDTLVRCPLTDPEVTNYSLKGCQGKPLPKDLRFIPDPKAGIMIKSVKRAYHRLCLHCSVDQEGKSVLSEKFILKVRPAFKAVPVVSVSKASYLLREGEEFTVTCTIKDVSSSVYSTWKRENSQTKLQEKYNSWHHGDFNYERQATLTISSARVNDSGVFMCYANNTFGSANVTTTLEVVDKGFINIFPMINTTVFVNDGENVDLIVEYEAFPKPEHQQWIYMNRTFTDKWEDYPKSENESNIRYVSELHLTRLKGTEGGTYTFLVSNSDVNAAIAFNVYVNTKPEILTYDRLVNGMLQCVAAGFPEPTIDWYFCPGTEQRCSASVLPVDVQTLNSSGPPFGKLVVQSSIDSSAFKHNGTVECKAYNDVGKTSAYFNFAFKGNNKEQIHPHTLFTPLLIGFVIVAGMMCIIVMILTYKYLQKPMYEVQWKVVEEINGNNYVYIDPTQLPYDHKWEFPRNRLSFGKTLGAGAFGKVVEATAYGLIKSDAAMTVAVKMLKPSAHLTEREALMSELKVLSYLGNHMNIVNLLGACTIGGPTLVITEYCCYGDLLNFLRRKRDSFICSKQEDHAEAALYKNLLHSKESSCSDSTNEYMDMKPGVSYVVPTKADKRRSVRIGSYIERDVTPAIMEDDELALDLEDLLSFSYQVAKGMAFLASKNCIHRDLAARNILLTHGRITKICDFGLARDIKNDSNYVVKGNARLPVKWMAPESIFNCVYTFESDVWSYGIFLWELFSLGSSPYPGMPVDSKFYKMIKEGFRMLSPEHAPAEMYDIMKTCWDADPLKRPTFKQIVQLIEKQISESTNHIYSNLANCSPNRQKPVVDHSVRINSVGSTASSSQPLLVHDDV

IC50 (FLT3-D835Y) | IC50 (FLT3-ITD) | IC50 (c-KIT) | SMILES
– | 0.0001 to 10 µM | 0.0001 to 10 µM | O=C(Cc1ccc(-c2cnc3c(c2)C2(CC2)C(=O)N3)cc1F)Nc1cncc(C(F)(F)F)c1 [Compound P-0064, 2-(2-fluoro-4-(2′-oxo-1′,2′-dihydrospiro[cyclopropane-1,3′-pyrrolo[2,3-b]pyridin]-5′-yl)phenyl)-N-(5-(trifluoromethyl)pyridin-3-yl)acetamide]
0.0001 to 10 µM | 0.0001 to 10 µM | – | O=C(Cc1ccc(-c2cnc(Nc3cnn4ccccc34)nc2)cc1)Nc1cncc(C(F)(F)F)c1 [Compound P-0074, 2-[4-[2-(pyrazolo[1,5-a]pyridin-3-ylamino)pyrimidin-5-yl]phenyl]-N-[5-(trifluoromethyl)-3-pyridyl]acetamide]
0.0001 to 10 µM | 0.0001 to 10 µM | – | O=C(Cc1cc(F)c(-c2cnc(Nc3cnn4ccccc34)nc2)cc1F)Nc1cncc(C(F)(F)F)c1 [Compound P-0075, 2-[2,5-difluoro-4-[2-(pyrazolo[1,5-a]pyridin-3-ylamino)pyrimidin-5-yl]phenyl]-N-[5-(trifluoromethyl)-3-pyridyl]acetamide]
– | 0.0001 to 10 µM | 0.0001 to 10 µM | Cn1cc(Nc2ncc(-c3ccc(CC(=O)NCc4ccccn4)c(F)c3)cn2)cn1 [Compound P-0088, 2-[2-fluoro-4-[2-[(1-methylpyrazol-4-yl)amino]pyrimidin-5-yl]phenyl]-N-(2-pyridylmethyl)acetamide]
– | 0.0001 to 10 µM | 0.0001 to 10 µM | Cn1cc(Nc2ncc(-c3ccc(CC(=O)NCc4ccc(C(F)(F)F)cn4)cc3)cn2)cn1 [Compound P-0162, 2-[4-[2-[(1-methylpyrazol-4-yl)amino]pyrimidin-5-yl]phenyl]-N-[[5-(trifluoromethyl)-2-pyridyl]methyl]acetamide]
– | 0.0001 to 10 µM | 0.0001 to 10 µM | Cn1cnc(Nc2ncc(-c3ccc(CC(=O)Nc4cc(C(C)(F)F)ccn4)cc3F)cn2)c1 [Compound P-0171, N-[4-(1,1-difluoroethyl)-2-pyridyl]-2-[3-fluoro-4-[2-[(1-methylimidazol-4-yl)amino]pyrimidin-5-yl]phenyl]acetamide]

More lines, now with the values behind:

SMILES | IC50 (FLT3-D835Y) | IC50 (FLT3-ITD) | IC50 (c-KIT)
Cc1cc(CC(=O)Nc2cccc(C(F)(F)F)c2)ccc1-c1cnc2[nH]c(-c3ccccc3)cc2c1 [Compound P-0002, 2-[3-methyl-4-(2-phenyl-1H-pyrrolo[2,3-b]pyridin-5-yl)phenyl]-N-[3-(trifluoromethyl)phenyl]acetamide] | 0.0001 to 10 µM | 0.0001 to 10 µM | –
O=C(Cc1ccc(-c2cnc3[nH]c(Cl)cc3c2)cc1F)Nc1ccnc(C(F)(F)F)c1 [Compound P-0030, 2-[4-(2-chloro-1H-pyrrolo[2,3-b]pyridin-5-yl)-2-fluoro-phenyl]-N-[2-(trifluoromethyl)-4-pyridyl]acetamide] | – | 0.0001 to 10 µM | 0.0001 to 10 µM
COc1ncc(NC(=O)Cc2ccc(-c3cnc4[nH]c(Cl)cc4c3)cc2F)cc1C(F)(F)F [Compound P-0038, 2-[4-(2-chloro-1H-pyrrolo[2,3-b]pyridin-5-yl)-2-fluoro-phenyl]-N-[6-methoxy-5-(trifluoromethyl)-3-pyridyl]acetamide] | – | 0.0001 to 10 µM | –
COc1ncc(NC(=O)Cc2cc(F)c(-c3cnc4[nH]c(Cl)cc4c3)cc2F)cc1C(F)(F)F [Compound P-0045, 2-[4-(2-chloro-1H-pyrrolo[2,3-b]pyridin-5-yl)-2,5-difluoro-phenyl]-N-[6-methoxy-5-(trifluoromethyl)-3-pyridyl]acetamide] | – | 0.0001 to 10 µM | –
COc1ncc(NC(=O)Cc2ccc(-c3cnc4[nH]c(Cl)cc4c3)c(F)c2)cc1C(F)(F)F [Compound P-0046, 2-[4-(2-chloro-1H-pyrrolo[2,3-b]pyridin-5-yl)-3-fluoro-phenyl]-N-[6-methoxy-5-(trifluoromethyl)-3-pyridyl]acetamide] | – | 0.0001 to 10 µM | –
COc1ncc(NC(=O)Cc2ccc(-c3cnc4[nH]cc(F)c4c3)c(F)c2)cc1C(F)(F)F [Compound P-0048, 2-[3-fluoro-4-(3-fluoro-1H-pyrrolo[2,3-b]pyridin-5-yl)phenyl]-N-[6-methoxy-5-(trifluoromethyl)-3-pyridyl]acetamide] | 0.0001 to 10 µM | – | 0.0001 to 10 µM

— patent US10160747B2, “Compounds and methods for kinase modulation, and indications therefor” (Plexxikon Inc., priority 2016, dated 2018)
